Test system: plasma active GLP-1
Test: In vivo plasma active GLP-1 level-increasing action after oral administration
Design: species or system mice
Settings: 10 mg/kg orally; for Plasma active GLP-1 level (relative value to control group as 100), Average value: male C57/BL6J mice, blood after 30 minutes, 0.5% CMC-Na group = 100; for Significant difference (p < 0.05) vs control group, plasma active GLP-1 level: mice, 30 minutes, Student's t-test
Description: In the Test Examples below, data were represented as average value±standard error. In Test Examples 1, 2, and 3, a Student's t-test was used for a statistical test, and in other Test Examples, one-way ANOVA was carried out for dispersion analysis followed by a multiple comparison test by using a Dunnet's test. […] All of these analyses were carried out by using an SPSS for Windows release 17.0 (manufactured by SPSS Inc.).
Among the cyclic dipeptides, cyclic dipeptides for which an in vitro GLP-1 secretion-accelerating action was found and highly lipid-soluble cyclic dipeptides were used in the following experiment. Seven-week-old male C57/BL6J mice were purchased from CLEA Japan, Inc. for use, and they were subjected to an experiment after 1 week of a habituation period. Each animal was grown in an animal room with an air conditioning system (temperature: 23.5±1.0° C., humidity: 55±10 RH %, air ventilation: 12 to 15 times/hour, illumination: from 7:00 to 19:00/day).
After the habituation period, the mice were subjected to 5.5 hours of food deprivation and 2 hours of water deprivation. Thereafter, a cyclic dipeptide dissolved or suspended in a 0.5% CMC-Na aqueous solution in 10 mg/kg was orally administered to each mouse forcibly. After 30 minutes, the blood was collected from the abdominal vena cava under anesthesia, and 1 μL of heparin sodium and 1 μL of 10 mM Sitagliptin phosphate were added to each collected blood, which was then subjected to centrifugation at 8000 rpm for 10 minutes to recover the plasma, and the plasma active GLP-1 level was measured by using the ELISA kit. In the analysis, the active GLP-1 level for a group administered with 0.5% CMC-Na aqueous solution was defined as 100, and relative values thereto were used.
In each Table, cyclic dipeptides for which an in vivo plasma active GLP-1 level-increasing action was found and was not found are listed.

Row | SMILES | Plasma active GLP-1 level (relative value to control group as 100), Average value (Experiment 4) | Significant difference (p < 0.05) vs control group, plasma active GLP-1 level (Experiment 4) | Plasma active GLP-1 level (relative value to control group as 100), Average value (Experiment 3) | Significant difference (p < 0.05) vs control group, plasma active GLP-1 level (Experiment 3) | also measured
1 | O=C1CNC(=O)C(Cc2ccccc2)N1 (stereo not shown) [compound 8] | 85 | No | – | – | –
2 | CC(C)C1NC(=O)C(C(C)C)NC1=O (stereo not shown) [compound 11] | 100 | No | – | – | –
3 | CCC(C)C1NC(=O)C(C(C)CC)NC1=O (stereo not shown) [compound 14] | 105 | No | – | – | –
4 | CC(C)CC1NC(=O)C(CC(C)C)NC1=O (stereo not shown) [compound 15] | 95 | No | – | – | –
5 | CC(C)CC1NC(=O)C(Cc2ccccc2)NC1=O (stereo not shown) [compound 16] | 105 | No | – | – | –
6 | O=C1NC(Cc2ccccc2)C(=O)NC1Cc1ccccc1 (stereo not shown) [compound 17] | – | – | 203 | Yes | –
7 | O=C1NC(Cc2c[nH]c3ccccc23)C(=O)NC1Cc1ccc(O)cc1 (stereo not shown) [compound 22] | – | – | 203 | Yes | –
8 | O=C1NC(Cc2ccc(O)cc2)C(=O)NC1CO (stereo not shown) [compound 29] | 95 | No | – | – | –
9 | O=C1NC(Cc2ccc(O)cc2)C(=O)N2CCCC12 (stereo not shown) [compound 30] | 95 | No | – | – | –
10 | O=C(O)CC1NC(=O)C(Cc2ccccc2)NC1=O (stereo not shown) [compound 33] | 90 | No | – | – | –
11 | O=C1NC(Cc2c[nH]cn2)C(=O)NC1Cc1ccccc1 (stereo not shown) [compound 38] | – | – | 264 | Yes | –
12 | CC(C)CC1NC(=O)C(Cc2c[nH]c3ccccc23)NC1=O (stereo not shown) [compound 39] | – | – | 229 | Yes | –
13 | CC(C)CC1NC(=O)C(C)NC1=O (stereo not shown) [compound 44] | – | – | 255 | Yes | –
14 | O=C1NC(Cc2ccc(O)cc2)C(=O)NC1Cc1ccc(O)cc1 (stereo not shown) [compound 49] | – | – | – | – | Plasma active GLP-1 level (relative value to control group as 100), Average value (Experiment 5): 100; Significant difference (p < 0.05) vs control group, plasma active GLP-1 level (Experiment 5): No
15 | CC(C)C1NC(=O)C(Cc2c[nH]c3ccccc23)NC1=O (stereo not shown) [compound 61] | – | – | 117 | No | –
16 | CSCCC1NC(=O)C(CC(C)C)NC1=O (stereo not shown) [compound 72] | – | – | – | – | Plasma active GLP-1 level (relative value to control group as 100), Average value (Experiment 6): 90; Significant difference (p < 0.05) vs control group, plasma active GLP-1 level (Experiment 6): No
17 | O=C1NC(Cc2c[nH]c3ccccc23)C(=O)NC1Cc1c[nH]c2ccccc12 (stereo not shown) [compound 75] | – | – | 229 | Yes | –
18 | CC(O)C1NC(=O)C(Cc2c[nH]c3ccccc23)NC1=O (stereo not shown) [compound 79] | – | – | – | – | Plasma active GLP-1 level (relative value to control group as 100), Average value (Experiment 6): 100; Significant difference (p < 0.05) vs control group, plasma active GLP-1 level (Experiment 6): No
19 | NC(=O)CCC1NC(=O)C(Cc2c[nH]c3ccccc23)NC1=O (stereo not shown) [compound 82] | – | – | – | – | Plasma active GLP-1 level (relative value to control group as 100), Average value (Experiment 6): 90; Significant difference (p < 0.05) vs control group, plasma active GLP-1 level (Experiment 6): No
20 | O=C(O)CCC1NC(=O)C(Cc2ccc(O)cc2)NC1=O (stereo not shown) [compound 87] | – | – | – | – | Plasma active GLP-1 level (relative value to control group as 100), Average value (Experiment 7): 141; Significant difference (p < 0.05) vs control group, plasma active GLP-1 level (Experiment 7): No

— patent US20170114030A1, “COMPOSITION WITH HIGH CONTENT OF CYCLIC DIPEPTIDE” (SUNTORY HOLDINGS LIMITED, priority 2014, published 2017)
